SMILES strings stand for the structures. Values after ≈ are worked out from the molar mass of the structure shown. Where two headings read alike, the source gives them in different places.

Here are results for four molecules from PMC6155776, “Synthesis of Novel Pyrazinamide Derivatives Based on 3-Chloropyrazine-2-carboxamide and Their Antimicrobial Evaluation” (Molecules : A Journal of Synthetic Chemistry and Natural …, 2017).

Assay in all cases: microbe, parasite or virus in culture
Common to all, as to format: cell-based

One assay has as its system M. tbc 9449/2007. The following applies: Mycobacterium tuberculosis, read-out: Minimum inhibitory concentrations M. tbc 9449/2007.
A further assay deals with M. tbc 234/2005. The note with it: Mycobacterium tuberculosis, read-out: Minimum inhibitory concentrations M. tbc 234/2005.
A further assay deals with M. tbc PRAHA 1. The note with it: Mycobacterium tuberculosis, read-out: Minimum inhibitory concentrations M. tbc PRAHA 1.
Another assay has as its system M. tbc PRAHA 4. The following applies: Mycobacterium tuberculosis, read-out: Minimum inhibitory concentrations M. tbc PRAHA 4.
A further assay relates to M. tbc PRAHA 131. The note with it: Mycobacterium tuberculosis, read-out: Minimum inhibitory concentrations M. tbc PRAHA 131.
Assay [1] relates to four MDR-TB strains and one XDR-TB strain. The note with it: Mycobacterium tuberculosis, read-out: MIC against resistant M. tuberculosis strains.

Consider `Cc1ccc(CNc2nccnc2C(N)=O)cc1` [Compound 8, 3-[(4-Methylbenzyl)amino]pyrazine-2-carboxamide], for which the MIC in the assay with M. tbc 9449/2007 (9449/2007, 336 h) came out at 250 µM (≈ 60.6 µg/mL); in the assay with M. tbc 9449/2007 (9449/2007, 504 h), 250 µM (≈ 60.6 µg/mL); in the assay with M. tbc 234/2005 (234/2005, 336 h) it was 250 µM (≈ 60.6 µg/mL); in the assay on M. tbc 234/2005 (234/2005, 504 h) it was 250 µM (≈ 60.6 µg/mL); in the assay on M. tbc PRAHA 1 (PRAHA1, 336 h) it was 250 µM (≈ 60.6 µg/mL); with M. tbc PRAHA 1 (PRAHA1, 504 h), 250 µM (≈ 60.6 µg/mL). Further, the MIC is 250 µM (≈ 60.6 µg/mL) in the assay with M. tbc PRAHA 4 (PRAHA4, 336 h); 250 µM (≈ 60.6 µg/mL) with M. tbc PRAHA 4 (PRAHA4, 504 h); 250 µM (≈ 60.6 µg/mL) with M. tbc PRAHA 131 (PRAHA131, 336 h); 250 µM (≈ 60.6 µg/mL) in the assay on M. tbc PRAHA 131 (PRAHA131, 504 h); 250 µM (≈ 60.6 µg/mL) in assay [1].

Consider `NNC(=O)c1ccncc1` [INH, isoniazid, reference compound], for which the MIC was determined as 62.5 µM (≈ 8.57 µg/mL) with M. tbc 9449/2007 (9449/2007, 336 h); 62.5 µM (≈ 8.57 µg/mL) with M. tbc 9449/2007 (9449/2007, 504 h); 15.6 µM (≈ 2.14 µg/mL) in the assay on M. tbc 234/2005 (234/2005, 336 h); 15.6 µM (≈ 2.14 µg/mL) in the assay on M. tbc 234/2005 (234/2005, 504 h); 15.6 µM (≈ 2.14 µg/mL) with M. tbc PRAHA 1 (PRAHA1, 336 h); 15.6 µM (≈ 2.14 µg/mL) in the assay on M. tbc PRAHA 1 (PRAHA1, 504 h). For the same molecule, the MIC in the assay with M. tbc PRAHA 4 (PRAHA4, 336 h) worked out at 15.6 µM (≈ 2.14 µg/mL); in the assay with M. tbc PRAHA 4 (PRAHA4, 504 h) it was 31.2 µM (≈ 4.29 µg/mL); with M. tbc PRAHA 131 (PRAHA131, 336 h), 15.6 µM (≈ 2.14 µg/mL); in the assay on M. tbc PRAHA 131 (PRAHA131, 504 h), 31.2 µM (≈ 4.29 µg/mL).

`CO[C@H]1/C=C/O[C@@]2(C)Oc3c(C)c(O)c4c(O)c(c(/C=N/N5CCN(C)CC5)c(O)c4c3C2=O)NC(=O)/C(C)=C\C=C\[C@H](C)[C@H](O)[C@@H](C)[C@@H](O)[C@@H](C)[C@H](OC(C)=O)[C@@H]1C` [RFM, rifampicin, reference compound]: the MIC in the assay on M. tbc 9449/2007 (9449/2007, 336 h) was > 15.6 µM; with M. tbc 9449/2007 (9449/2007, 504 h), > 15.6 µM; in the assay on M. tbc 234/2005 (234/2005, 336 h), > 15.6 µM; with M. tbc 234/2005 (234/2005, 504 h), > 15.6 µM; in the assay with M. tbc PRAHA 1 (PRAHA1, 336 h), > 15.6 µM; in the assay on M. tbc PRAHA 1 (PRAHA1, 504 h), > 15.6 µM. Moreover, the MIC with M. tbc PRAHA 4 (PRAHA4, 336 h) is > 15.6 µM; in the assay with M. tbc PRAHA 4 (PRAHA4, 504 h), > 15.6 µM; in the assay on M. tbc PRAHA 131 (PRAHA131, 336 h) it was > 15.6 µM; with M. tbc PRAHA 131 (PRAHA131, 504 h) it was > 15.6 µM.

With `NC(=O)c1nccnc1NCc1ccc(N)cc1` [Compound 9, 3-[(4-Aminobenzyl)amino]pyrazine-2-carboxamide], the MIC with M. tbc 9449/2007 (9449/2007, 336 h) was 62.5 µM (≈ 15.2 µg/mL); with M. tbc 9449/2007 (9449/2007, 504 h), 62.5 µM (≈ 15.2 µg/mL); in the assay with M. tbc 234/2005 (234/2005, 336 h), 62.5 µM (≈ 15.2 µg/mL); in the assay on M. tbc 234/2005 (234/2005, 504 h) it was 62.5 µM (≈ 15.2 µg/mL); in the assay on M. tbc PRAHA 1 (PRAHA1, 336 h), 62.5 µM (≈ 15.2 µg/mL); in the assay on M. tbc PRAHA 1 (PRAHA1, 504 h), 62.5 µM (≈ 15.2 µg/mL). Also, the MIC in the assay on M. tbc PRAHA 4 (PRAHA4, 336 h) was 62.5 µM (≈ 15.2 µg/mL); in the assay with M. tbc PRAHA 4 (PRAHA4, 504 h) it was 62.5 µM (≈ 15.2 µg/mL); in the assay on M. tbc PRAHA 131 (PRAHA131, 336 h), 62.5 µM (≈ 15.2 µg/mL); in the assay with M. tbc PRAHA 131 (PRAHA131, 504 h), 125 µM (≈ 30.4 µg/mL); in assay [1], 62.5 µM (≈ 15.2 µg/mL).
